Reference: ChEMBL document CHEMBL1201862, “PubChem BioAssay data set” (2004)
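Protocol summary: plate cells (96-well), add compound at 5 concentrations, incubate 48 h, interpolate endpoints linearly. GI50 is the concentration that inhibits growth by half.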 Active and inactive are the calls of the source. No stated cut-off is given here; in the data, active = GI50 up to about 1.1 µM and inactive = higher.

Tests used:
Test in all cases: inhibition of tumour cell growth, NCI panel, 48 h
[1] = system: M19-MEL
[2] = system: RXF 631
[3] = system: LXFL 529
[4] = system: DU-145
[5] = system: Hs-578T
[6] = system: NCI/ADR-RES
[7] = system: MCF7
[8] = system: BT-549
[9] = system: 786-0

Nc1nnc(CCC(=O)Nc2cc(Cl)ccc2Cl)n1N
GI50 [1]: > 100 µM (inactive) | GI50 [2]: > 100 µM (inactive) | GI50 [3]: > 100 µM (inactive)

CCOC(=O)C(=O)Nc1cccc(C)c1C
GI50 [1]: > 100 µM (inactive) | GI50 [3]: > 100 µM (inactive)

COC[C@@H](Cc1ccc(OC)c(OC)c1)[C@@H](COC)Cc1ccc(OC)c(OC)c1
GI50 [1]: > 100 µM (inactive) | GI50 [3]: 81.7 µM (inactive)

Cc1cc2oc3c(ccc(=O)n3C)c(=O)c2c(C)c1Cl
GI50 [4]: 56.6 µM (inactive) | GI50 [5]: 32 µM (inactive) | GI50 [6]: 72.9 µM (inactive)

CCOC(=O)/C(=C/c1cn(C(C)=O)c2ccccc12)P(=O)(OC)OC
GI50 [4]: 22.2 µM (inactive) | GI50 [5]: 31 µM (inactive) | GI50 [7]: < 0.01 µM (active) | GI50 [6]: 29.2 µM (inactive)

CN(C)/N=N/c1ccc([N+](=O)[O-])cc1C(N)=O
GI50 [1]: > 100 µM (inactive) | GI50 [7]: > 100 µM (inactive) | GI50 [6]: > 100 µM (inactive)

CCCCNC1=C2C(=O)NN=C2CO1
GI50 [1]: > 100 µM (inactive) | GI50 [2]: > 100 µM (inactive) | GI50 [3]: 39.8 µM (inactive)

CCc1c(-c2ccccc2)[nH]c2ccccc2c1=O
GI50 [4]: 76.9 µM (inactive) | GI50 [8]: 59.4 µM (inactive) | GI50 [7]: 57.1 µM (inactive)

N=C(NNS(=O)(=O)c1ccccc1)Oc1ccc(Cl)cc1
GI50 [1]: > 100 µM (inactive) | GI50 [9]: 44.3 µM (inactive) | GI50 [3]: 51.9 µM (inactive)

Cc1ccc(S(=O)(=O)N2CCCSCC2)cc1
GI50 [4]: > 100 µM (inactive) | GI50 [5]: 72.4 µM (inactive) | GI50 [7]: > 100 µM (inactive) | GI50 [6]: > 100 µM (inactive)

CCCn1cc2c3c(cccc31)C1C=C(C)CN(C)C1C2 (stereo unspecified)
GI50 [7]: 9.71 µM (inactive) | GI50 [6]: 20.8 µM (inactive)

C=COCCCOc1ccccc1
GI50 [1]: > 100 µM (inactive) | GI50 [3]: > 100 µM (inactive)

CCP(=O)(CC)C(Cl)(Cl)C(O)C(C)(C)C (stereo unspecified)
GI50 [4]: > 100 µM (inactive) | GI50 [5]: > 100 µM (inactive) | GI50 [7]: > 100 µM (inactive) | GI50 [6]: > 100 µM (inactive)

CC(C)(Br)C1(O)CCCN1C(=O)c1ccccc1 (stereo unspecified)
GI50 [1]: > 100 µM (inactive) | GI50 [2]: > 100 µM (inactive) | GI50 [3]: > 100 µM (inactive)

O=C(NNC(=O)c1nsc2ccccc12)c1ccc(Cl)cc1
GI50 [1]: 20 µM (inactive) | GI50 [3]: 19.7 µM (inactive)

O=C(O)/C(=C\c1ccncc1)c1cccc2ccccc12
GI50 [4]: > 100 µM (inactive) | GI50 [5]: > 100 µM (inactive) | GI50 [8]: > 100 µM (inactive) | GI50 [6]: > 100 µM (inactive) | GI50 [9]: > 100 µM (inactive)

OCc1cn(C(c2ccccc2)(c2ccccc2)c2ccccc2)cn1
GI50 [4]: > 100 µM (inactive) | GI50 [5]: 33.7 µM (inactive) | GI50 [6]: > 100 µM (inactive)

CC(C)(C)C(=O)OCC1OC(N=[N+]=[N-])C(OC(=O)C(C)(C)C)C(OC(=O)C(C)(C)C)C1OC(=O)C(C)(C)C (stereo unspecified)
GI50 [3]: > 100 µM (inactive)

CC(=O)/N=C1/N(/C=C2\C(=O)Oc3ccccc3C2=O)C(=O)/C(=C/c2ccc(NC(C)=O)cc2)N1C
GI50 [4]: > 100 µM (inactive) | GI50 [5]: 44.4 µM (inactive) | GI50 [7]: > 100 µM (inactive) | GI50 [6]: > 100 µM (inactive) | GI50 [9]: > 100 µM (inactive)

CCCCCCCCCCCC1=NCCN1
GI50 [4]: 74.1 µM (inactive) | GI50 [5]: 83.9 µM (inactive) | GI50 [7]: 38.9 µM (inactive) | GI50 [6]: > 100 µM (inactive)
